Reference: paper PMC11249646, “Small-Molecule Disruptors of the Interaction between Calcium- and Integrin-Binding Protein 1 and Integrin αIIbβ3 as Novel Antiplatelet Agents” (ACS Pharmacology & Translational Science, 2024)
Like-named read-outs stand apart in the source and are kept apart here.

Legend:
Format in all cases: binding
[1] = molecular target: T1, CIB1 and αIIb interaction (CIB1-GST : F-αIIb peptide) (Homo sapiens, UniProt Q99828); assay: FP assay, 1536-well qHTS format (primary and confirmatory screen); settings: for CONFIRMATORY SCREEN Confirm?: YES/NO call; for CONFIRMATORY SCREEN Curve Class: qHTS curve class; for CONFIRMATORY SCREEN Curve Class / Curve Class: negative sign = inhibitory curve; for CONFIRMATORY SCREEN Efficacy (%) / Efficacy (%): negative = inhibition
T1 construct: made in house; host or cells: BL-21 plus RIL cells (E. coli)
T1 sequence (Q99828 1-191): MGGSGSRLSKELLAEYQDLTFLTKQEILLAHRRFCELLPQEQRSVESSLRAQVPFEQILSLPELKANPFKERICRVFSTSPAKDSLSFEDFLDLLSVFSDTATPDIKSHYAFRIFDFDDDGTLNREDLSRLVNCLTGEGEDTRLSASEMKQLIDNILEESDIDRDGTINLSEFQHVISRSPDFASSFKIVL

[2] = molecular target: T2, GST-CIB1 : F-scrambled peptide (Homo sapiens, UniProt Q99828); assay: FP scrambled-peptide counter screen, 384-well format; settings: F-scrambled peptide; for IC50: read-out: 384-well COUNTERSCREEN IC50; for 384-well COUNTERSCREEN Confirm?: *: Curve in opposite direction
T2 construct: made in house; host or cells: BL-21 plus RIL cells (E. coli)
T2 sequence (Q99828 1-191): T1 sequence (Q99828 1-191)

[3] = molecular target: T3, CIB1 and αIIb interaction (GST-CIB1 : F-αIIb peptide) (Homo sapiens, UniProt Q99828); assay: FP assay, 384-well format (screen); set-up: 384-well SCREEN Efficacy (%): concentration or dose not given beside the values; settings: F-αIIb peptide; for 384-well SCREEN Confirm?: YES/NO; for IC50: read-out: 384-well SCREEN IC50
T3 construct: made in house; host or cells: BL-21 plus RIL cells (E. coli)
T3 sequence (Q99828 1-191): T1 sequence (Q99828 1-191)

[4] = molecular target: T2, GST-CIB1 : F-scrambled peptide; assay: FP scrambled-peptide counter screen, 1536-well format; settings: scrambled-peptide counterscreen; for COUNTERSCREEN Confirm?: YES/NO call; for COUNTERSCREEN Curve Class: qHTS curve class
[5] = qHTS primary screen hits, Table S2
[6] = qHTS FP screen hits, Table S2, read-out: IC50
[7] = confirmatory screen, read-out: CONFIRMATORY SCREEN IC50
[8] = qHTS primary screen hits, Table S2, read-out: IC50

Cc1csc(CNc2ncnc3ccc(-c4ccc(CO)o4)cc23)n1.O=C(O)C(F)(F)F [NCGC00229623-01]
CONFIRMATORY SCREEN Confirm? ([1]; confirmatory screen): YES | CONFIRMATORY SCREEN Curve Class ([1]; confirmatory screen): -3 | CONFIRMATORY SCREEN Efficacy (%) ([1]; confirmatory screen): -83% | Efficacy (%) [1, 5]: -60% | Curve Class [1, 5]: -2.2 | 384-well COUNTERSCREEN Efficacy (%) [2]: 39% | IC50 [2]: 25.1 µM | 384-well SCREEN Efficacy (%) [3]: 70% | 384-well SCREEN Confirm? [3]: YES | IC50 [3]: 35.5 µM | COUNTERSCREEN Efficacy (%) [4]: -25% | COUNTERSCREEN Confirm? [4]: YES | COUNTERSCREEN Curve Class [4]: 4

CC(O)c1ccc(-c2ccc3ncnc(NCc4nccs4)c3c2)o1.O=C(O)C(F)(F)F (stereo not drawn) [NCGC00238382-01]
CONFIRMATORY SCREEN Confirm? ([1]; confirmatory screen): YES | CONFIRMATORY SCREEN Curve Class ([1]; confirmatory screen): -3 | CONFIRMATORY SCREEN Efficacy (%) ([1]; confirmatory screen): -53% | Efficacy (%) ([1]; qHTS FP screen hits, Table S2): -63% | Curve Class ([1]; qHTS FP screen hits, Table S2, one class per curve where COUNT > 1): -2.2 | IC50 [1, 6]: 39.8 µM | 384-well COUNTERSCREEN Efficacy (%) [2]: 36% | 384-well COUNTERSCREEN Confirm? [2]: YES | IC50 [2]: 17.7 µM | 384-well SCREEN Efficacy (%) [3]: 61% | 384-well SCREEN Confirm? [3]: YES | IC50 [3]: 14.1 µM | COUNTERSCREEN Efficacy (%) [4]: 0% | COUNTERSCREEN Confirm? [4]: YES | COUNTERSCREEN Curve Class [4]: 4

O=C(O)C(F)(F)F.OCc1ccc(-c2ccc3ncnc(NCc4nccs4)c3c2)o1 [NCGC00238383-01]
CONFIRMATORY SCREEN Confirm? ([1]; confirmatory screen): YES | CONFIRMATORY SCREEN Curve Class ([1]; confirmatory screen): -3 | CONFIRMATORY SCREEN Efficacy (%) ([1]; confirmatory screen): -52% | IC50 [1, 7]: 70.8 µM | Efficacy (%) [1, 5]: -70% | Curve Class [1, 5]: -2.2 | IC50 [1, 8]: 39.8 µM | 384-well COUNTERSCREEN Efficacy (%) [2]: 47% | IC50 [2]: 39.8 µM | 384-well SCREEN Efficacy (%) [3]: 69% | 384-well SCREEN Confirm? [3]: YES | IC50 [3]: 25.1 µM | COUNTERSCREEN Efficacy (%) [4]: -16% | COUNTERSCREEN Confirm? [4]: YES | COUNTERSCREEN Curve Class [4]: 4

CCOC(=O)c1c(NC(=O)C2CC(Cl)=CCC2C(=O)O)sc2c1CCCCC2.O=C(O)C(F)(F)F (stereo not drawn) [NCGC00238648-01]
CONFIRMATORY SCREEN Confirm? ([1]; confirmatory screen): YES | CONFIRMATORY SCREEN Curve Class ([1]; confirmatory screen): -2.2 | CONFIRMATORY SCREEN Efficacy (%) ([1]; confirmatory screen): -59% | Efficacy (%) ([1]; qHTS FP screen hits, Table S2): -22% | IC50 [1, 6]: 35.5 µM | 384-well COUNTERSCREEN Efficacy (%) [2]: 12% | IC50 [2]: > 120 µM | 384-well SCREEN Efficacy (%) [3]: 15% | IC50 [3]: > 120 µM | COUNTERSCREEN Efficacy (%) [4]: 16% | COUNTERSCREEN Confirm? [4]: YES | COUNTERSCREEN Curve Class [4]: 4

COC(=O)c1ccc2c(c1)S(=O)(=O)N=C2Sc1cc(C)ccc1C [NCGC00238687-01]
CONFIRMATORY SCREEN Confirm? ([1]; confirmatory screen): YES | CONFIRMATORY SCREEN Curve Class ([1]; confirmatory screen): -1.2 | CONFIRMATORY SCREEN Efficacy (%) ([1]; confirmatory screen): -59% | IC50 [1, 7]: 28.2 µM | Efficacy (%) [1, 5]: -49% | Curve Class ([1]; qHTS primary screen hits, Table S2, several classes where COUNT > 1): -2.2 | IC50 [1, 8]: 39.8 µM | 384-well COUNTERSCREEN Efficacy (%) [2]: 45% | 384-well COUNTERSCREEN Confirm? [2]: YES | IC50 [2]: > 120 µM | 384-well SCREEN Efficacy (%) [3]: 65% | 384-well SCREEN Confirm? [3]: YES | IC50 [3]: 11.2 µM | COUNTERSCREEN Efficacy (%) [4]: -10% | COUNTERSCREEN Confirm? [4]: YES | COUNTERSCREEN Curve Class [4]: 4

CCOC(=O)c1ccc(O)c2ncc(-c3ccc(C(=N)N)cc3)cc12.O=C(O)C(F)(F)F [NCGC00241050-01]
CONFIRMATORY SCREEN Confirm? ([1]; confirmatory screen): YES | CONFIRMATORY SCREEN Curve Class ([1]; confirmatory screen): -2.2 | CONFIRMATORY SCREEN Efficacy (%) ([1]; confirmatory screen): -52% | Efficacy (%) ([1]; qHTS FP screen hits, Table S2): -77% | IC50 [1, 6]: 44.7 µM | 384-well COUNTERSCREEN Efficacy (%) [2]: 77% | 384-well COUNTERSCREEN Confirm? [2]: Inconclusive | 384-well SCREEN Efficacy (%) [3]: 87% | 384-well SCREEN Confirm? [3]: YES | IC50 [3]: 20 µM | COUNTERSCREEN Efficacy (%) [4]: -18% | COUNTERSCREEN Confirm? [4]: YES | COUNTERSCREEN Curve Class [4]: 4
